Where two headings read alike, the source gives them in different places.
How the values were obtained:
PC12 cells [1] = assay: TUNEL, Aβ25-35-induced apoptosis; type: cell-based, Rat; settings: 25 μM Aβ25-35, 36 h; EGT at 0.5 mM or 1 mM
Method: The commercially available in situ death detection kit (Boehringer Mannheim product, Manheim, Germany) was utilized to detect DNA fragmentation. The PC12 cells (5×10^5 cells/1.5 ml in chamber slide) were fixed for 30 min in 10% neutral buffered-formalin solution at room temperature. Endogenous peroxidase was inactivated by incubation with 0.3% (v/v) hydrogen peroxide in methanol for 30 min at room temperature and further incubated in a permeabilizing solution (0.1% sodium citrate and 0.1% Triton X-100) for 2 min at 4° C. The cells were labeled by incubation with the TUNEL reaction mixture for 60 min at 37° C. followed by labeling with peroxidase-conjugated anti-fluorescein anti-goat antibody (Fab fragment) for additional 30 min. After staining with diaminobenzidine for 10 min, cells were rinsed with phosphate-buffered saline (PBS) and mounted with 50% glycerol.

PC12 cells [2] = assay: Mitochondrial membrane potential (ΔΨm) by TMRE fluorescence; type: cell-based, Rat; settings: 25 μM Aβ25-35; pretreatment of EGT (0.5 mM, 1 mM)
Method: To measure the mitochondrial membrane potential (ΔΨm), the lipophilic cationic probe TMRE was used. After treatment with Aβ25-35 (25 μM) for 24 h in the presence or absence of EGT, cells (1×10^4 cells/1 ml in 4-well chamber) were rinsed with PBS, and TME (150 nM) was loaded. After 30 min incubation at 37° C., cells were examined under a confocal microscope (LEICA TCS SP).

[3] = system: tyrosine hydroxylase positive cells (TH+ cells) in the substantia nigra; assay: 6-OHDA lesion rat model, TH+ cells in the substantia nigra; type: in vivo, Sprague-Dawley rats
Method: (§1) Male Sprague-Dawley rats with starting weights 225±25 g, were housed in groups of 3 with free access to food and water, under controlled temperature (21° C.±1° C.) and a 12 hour light/dark cycle (light on 07.00 hrs). All scientific procedures were carried out with the approval of the Home Office, U.K. Rats were administered, by gavage, 70 mg/kg of ergothioneine or vehicle (sterile distilled water) daily for 4 days (n=6 per group). On the 4th day, 1 hr after L-ergothioneine or vehicle administration, rats were anaesthetized with small animal Immobilon® (0.04 ml/rat, i.m.), and 6-OHDA (5 μg dissolved in 4 μl of 0.1% ascorbic acid/saline solution) was injected onto median forebrain bundle (stereotactic co-ordinates: 2.2 mm anterior, +1.5 lateral from bregma and −7.9 ventral to dura with ear bars 5 mm below incisor bars (Datla et al. (2001) Neuroreport 12:3871, which reference is herein specifically incorporated by reference in its entirety). One week after 6-OHDA lesioning, rats were killed by cervical dislocation and the brains were dissected out immediately. A coronal section was made at the level of hypothalamus and fore brain, and hind brain parts were separated. Hind-brain was fixed for 7 days in 4% paraformaldehyde, then cryo-protected with 30% sucrose solution for 2-3 days and used for tyrosine hydroxylase (TH) immuno-staining as described by Datla et al. (2001) supra. Briefly, TH was immuno-stained by incubating the 20 μm fixed coronal free-floating sections with polyclonal rabbit anti-TH (1:3000, Chemicon, U.K.) followed by biotinylated anti-rabbit IgG and avidin/biotin complex (Vector Lab, U.K.). The TH immuno-complex was then visualized by diaminobenzidine (DAB) and H2O2. Images of TH positive cells (TH+ cells) were captured by a Xillix CCD digital camera and counted automatically (Image Proplus, Datacell, U.K.). The number of TH+ cells in the substantia nigra on the control side was compared with the lesioned side by averaging the cells in 5 different levels (Datla et al. (2001) supra). […]

[4] = system: striatal dopamine content; assay: 6-OHDA lesion rat model, striatal dopamine content; type: in vivo, Sprague-Dawley rats; settings: treatment before 6-OHDA lesioning
Method: as §1, with “Hind-brain was fixed for 7 days in 4% paraformaldehyde, then cryo-protected with 30% sucrose solution for 2-3 days and used for tyrosine hydroxylase (TH) immuno-staining as described by Datla et al. (2001) supra. Briefly, TH was immuno-stained by incubating the 20 μm fixed coronal free-floating sections with polyclonal rabbit anti-TH (1:3000, Chemicon, U.K.) followed by biotinylated anti-rabbit IgG and avidin/biotin complex (Vector Lab, U.K.). The TH immuno-complex was then visualized by diaminobenzidine (DAB) and H2O2.” left out, “U.K.).” for “U.K.). The number of TH+ cells in the substantia nigra on the control side was compared with the lesioned side by averaging the cells in 5 different levels (Datla et al. (2001) supra).”

[5] = Rabbit; cited from earlier work
[6] = Dog; cited from earlier work
[7] = Ox; cited from earlier work
[8] = Fowl; cited from earlier work

Compound: C[N+](C)(C)[C@@H](Cc1c[nH]c(=S)[nH]1)C(=O)[O-] [L-ergothioneine, 2-mercaptohistidine trimethylbetaine]
- proportion of TUNEL-positive cells (PC12 cells [1]): lowered the proportion of TUNEL-positive cells
- Aβ25-35-induced dissipation of ΔΨm (PC12 cells [2]): significantly blocked
- improvement in terms of neuroprotection over the controls ([3]; L-ergothioneine vs vehicle treated group): approximately 20%
- number of TH+ cells on the control side of the brain ([3]; control (unlesioned) side, vs vehicle group): comparable
- reduction in the number of TH+ cells ([3]; lesioned vs control side, 70 mg/kg by gavage, one week after 6-OHDA lesioning): 46%
- loss of striatal dopamine content [4]: markedly reduced the loss
- L-Ergothioneine Concentration (mg/100 ml blood) [5]: 1-10 mg/100 ml blood
- L-Ergothioneine Concentration (mg/100 ml blood) [6]: 3-6 mg/100 ml blood
- L-Ergothioneine Concentration (mg/100 ml blood) [7]: 0.5-2 mg/100 ml blood
- L-Ergothioneine Concentration (mg/100 ml blood) [8]: 2-10 mg/100 ml blood
